Experimental data as given in ChEMBL document CHEMBL1201862, “PubChem BioAssay data set” (2004).
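96-well plates; 48 h exposure; 5 concentrations. Endpoints by linear interpolation between flanking doses. Not reached: highest tested concentration assigned. GI50 = concentration required for 50% inhibition of growth.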 Calls of active or inactive are those of the source. No stated cut-off is given here; in the data, active = GI50 up to about 1.1 µM and inactive = higher.

Columns and labels:
Experiment in all cases: inhibition of tumour cell growth, NCI panel, 48 h
A498 = system: A498
BT-549 = system: BT-549
COLO 205 = system: COLO 205
HT-29 = system: HT-29
K562 = system: K562
LOX IMVI = system: LOX IMVI
MCF7 = system: MCF7
MOLT-4 = system: MOLT-4
Malme-3M = system: Malme-3M
NCI-H460 = system: NCI-H460
OVCAR-3 = system: OVCAR-3
OVCAR-4 = system: OVCAR-4
PC-3 = system: PC-3
SF-268 = system: SF-268
SF-295 = system: SF-295
SNB-19 = system: SNB-19
SNB-75 = system: SNB-75
SW-620 = system: SW-620
T47D = system: T47D
UACC-257 = system: UACC-257

| SMILES | GI50 (A498) | GI50 (BT-549) | GI50 (COLO 205) | GI50 (HT-29) | GI50 (K562) | GI50 (LOX IMVI) | GI50 (MCF7) | GI50 (MOLT-4) | GI50 (Malme-3M) | GI50 (NCI-H460) | GI50 (OVCAR-3) | GI50 (OVCAR-4) | GI50 (PC-3) | GI50 (SF-268) | GI50 (SF-295) | GI50 (SNB-19) | GI50 (SNB-75) | GI50 (SW-620) | GI50 (T47D) | GI50 (UACC-257) |
| --- | --- | --- | --- | --- | --- | --- | --- | --- | --- | --- | --- | --- | --- | --- | --- | --- | --- | --- | --- | --- |
| O=C1NC(c2ccccc2Cl)Nc2ccccc21 (stereo not given) | 30.8 µM (inactive) | 28.4 µM (inactive) | 8.49 µM (inactive) | 6.67 µM (inactive) | 3.77 µM (inactive) | 12.5 µM (inactive) | > 65.3 µM (inactive) | 8.77 µM (inactive) | 12.3 µM (inactive) | 13.9 µM (inactive) | 7.38 µM (inactive) | 27.5 µM (inactive) | 21.4 µM (inactive) | 59.7 µM (inactive) | 13.9 µM (inactive) | 15.1 µM (inactive) | 13.8 µM (inactive) | 3.09 µM (inactive) | 48.5 µM (inactive) | > 100 µM (inactive) |
| CSc1ncnc2c1ncn2CC(=O)C1CCC2C3CCC4=CC(=O)CCC4(C)C3CCC12C (stereo not given) | 5.13 µM (inactive) | 2.58 µM (inactive) | 3.41 µM (inactive) | 3.76 µM (inactive) | 3.47 µM (inactive) | 4.38 µM (inactive) | 3.08 µM (inactive) | 1.69 µM (inactive) | 7.16 µM (inactive) | 4.35 µM (inactive) | 4.25 µM (inactive) | 3.49 µM (inactive) | 2.57 µM (inactive) | 14.6 µM (inactive) | 3.21 µM (inactive) | 19.2 µM (inactive) | 5.19 µM (inactive) | 9.16 µM (inactive) | 1.91 µM (inactive) | 2.05 µM (inactive) |
| CC1=C(C)C(=O)OC(C(C)(O)C2(O)CCC3(O)C4CC(Cl)C5(O)C(O)C=CC(=O)C5(C)C4CCC32C)C1 (stereo not given) | 52.6 µM (inactive) | 46.3 µM (inactive) | 12.9 µM (inactive) | 15.9 µM (inactive) | 12.3 µM (inactive) | 14.9 µM (inactive) | 8.85 µM (inactive) | 10.1 µM (inactive) | > 100 µM (inactive) | 36.1 µM (inactive) | 52.8 µM (inactive) | 57.4 µM (inactive) | 48.1 µM (inactive) | 48.1 µM (inactive) | 30.3 µM (inactive) | 49.8 µM (inactive) | 4.25 µM (inactive) | 21.3 µM (inactive) | > 100 µM (inactive) | 37.2 µM (inactive) |
| COc1cc(/C=C2\CC3C4CC=C5C[C@@H](O)CC[C@]5(C)C4CC[C@]3(C)\C2=N\O)cc(OC)c1OC (stereo not given in full) | 6.93 µM (inactive) | 7 µM (inactive) | 3.73 µM (inactive) | 5.51 µM (inactive) | 34.4 µM (inactive) | 5.48 µM (inactive) | 3.21 µM (inactive) | 29.2 µM (inactive) | 9.35 µM (inactive) | 4.99 µM (inactive) | 7.29 µM (inactive) | 3.94 µM (inactive) | 4.28 µM (inactive) | 8.02 µM (inactive) | 3.02 µM (inactive) | 21.3 µM (inactive) | 9.2 µM (inactive) | 16.7 µM (inactive) | 2.72 µM (inactive) | 9.91 µM (inactive) |
| N#CC12CC=C(c3ccccc3)N=C1NC(c1ccccc1)=CC2 (stereo not given) | 23.2 µM (inactive) | 40.6 µM (inactive) | 30.8 µM (inactive) | 57.3 µM (inactive) | 31.6 µM (inactive) | 30.8 µM (inactive) | 50 µM (inactive) | 21.8 µM (inactive) | > 100 µM (inactive) | 57.5 µM (inactive) | > 100 µM (inactive) | 29.7 µM (inactive) | 33.9 µM (inactive) | > 100 µM (inactive) | 57.7 µM (inactive) | 90.8 µM (inactive) | 49 µM (inactive) | 98.9 µM (inactive) | 34.7 µM (inactive) | 48.6 µM (inactive) |
| Cc1ccc2c(c1)C(=O)C(C1OC(=O)c3ccccc31)C2 (stereo not given) | > 100 µM (inactive) | > 100 µM (inactive) | 56.2 µM (inactive) | 29.2 µM (inactive) | 97.3 µM (inactive) | 39.9 µM (inactive) | 36.1 µM (inactive) | 92.5 µM (inactive) | > 100 µM (inactive) | > 100 µM (inactive) | 91 µM (inactive) | > 100 µM (inactive) | 93.5 µM (inactive) | > 100 µM (inactive) | > 100 µM (inactive) | 87.3 µM (inactive) | > 100 µM (inactive) | > 100 µM (inactive) | 76.9 µM (inactive) | > 100 µM (inactive) |
| Brc1ccc2[nH]cc(-c3csc(-c4c[nH]c5ccccc45)n3)c2c1 | 5.19 µM (inactive) | 5.7 µM (inactive) | 2.08 µM (inactive) | 1.8 µM (inactive) | 3.03 µM (inactive) | 2.1 µM (inactive) | 2.13 µM (inactive) | 2.05 µM (inactive) | 3.03 µM (inactive) | 2.61 µM (inactive) | 3.01 µM (inactive) | 5.42 µM (inactive) | 3.54 µM (inactive) | 2.66 µM (inactive) | 2.42 µM (inactive) | 3.32 µM (inactive) | 10.1 µM (inactive) | 2.75 µM (inactive) | 4.24 µM (inactive) | 5.07 µM (inactive) |
| CC1(C)O[C@@H]2[C@@H]3OC(=O)C[C@@H]3[C@@H](COCc3ccccc3)[C@@H]2O1 | > 100 µM (inactive) | > 100 µM (inactive) | > 100 µM (inactive) | > 100 µM (inactive) | > 100 µM (inactive) | > 100 µM (inactive) | > 100 µM (inactive) | > 100 µM (inactive) | > 100 µM (inactive) | > 100 µM (inactive) | > 100 µM (inactive) | > 100 µM (inactive) | > 100 µM (inactive) | > 100 µM (inactive) | > 100 µM (inactive) | > 100 µM (inactive) | > 100 µM (inactive) | > 100 µM (inactive) | > 100 µM (inactive) | > 100 µM (inactive) |
| CN(C)CCCn1c2ccccc2c2cnccc21 | 38.5 µM (inactive) | 80.4 µM (inactive) | 14.6 µM (inactive) | 25.1 µM (inactive) | 26.2 µM (inactive) | 24.2 µM (inactive) | 35.2 µM (inactive) | 24.4 µM (inactive) | 28.6 µM (inactive) | 23.9 µM (inactive) | 42.9 µM (inactive) | 39.6 µM (inactive) | 32.3 µM (inactive) | 50.7 µM (inactive) | 46.5 µM (inactive) | 44.9 µM (inactive) | 66.1 µM (inactive) | 26.4 µM (inactive) | 70.8 µM (inactive) | 18.7 µM (inactive) |
| COC(=O)c1ccccc1/C=C1\Cc2c(ccc3c2CCC3)C1=O | > 100 µM (inactive) | > 100 µM (inactive) | > 100 µM (inactive) | > 100 µM (inactive) | > 100 µM (inactive) | > 100 µM (inactive) | > 100 µM (inactive) | > 100 µM (inactive) | > 100 µM (inactive) | > 100 µM (inactive) | > 100 µM (inactive) | > 100 µM (inactive) | > 100 µM (inactive) | > 100 µM (inactive) | > 100 µM (inactive) | > 100 µM (inactive) | 39.1 µM (inactive) | > 100 µM (inactive) | > 100 µM (inactive) | > 100 µM (inactive) |
| CCc1n[nH]c(=O)n1N1C(=O)C2CC=CCC2C1=O (stereo not given) | > 100 µM (inactive) | > 100 µM (inactive) | > 100 µM (inactive) | > 100 µM (inactive) | > 100 µM (inactive) | > 100 µM (inactive) | > 100 µM (inactive) | > 100 µM (inactive) | > 100 µM (inactive) | > 100 µM (inactive) | > 100 µM (inactive) | > 100 µM (inactive) | > 100 µM (inactive) | > 100 µM (inactive) | > 100 µM (inactive) | > 100 µM (inactive) | 39.1 µM (inactive) | > 100 µM (inactive) | > 100 µM (inactive) | > 100 µM (inactive) |
| CC(C)CCCC(C)[C@H]1CC[C@H]2n3c(nc4ccccc43)CCC[C@]12C (stereo not given in full) | 13.2 µM (inactive) | 19.2 µM (inactive) | 11.1 µM (inactive) | 8.79 µM (inactive) | 15.6 µM (inactive) | 32.7 µM (inactive) | 14.2 µM (inactive) | 16.1 µM (inactive) | 21.9 µM (inactive) | 15.9 µM (inactive) | 17.4 µM (inactive) | 16 µM (inactive) | 18.6 µM (inactive) | 20.3 µM (inactive) | 16.8 µM (inactive) | 19.4 µM (inactive) | 14.6 µM (inactive) | 17.7 µM (inactive) | 15.4 µM (inactive) | 20 µM (inactive) |
| COc1cccc2cc(C(=O)Nc3ccccn3)c(=N)oc12 | > 100 µM (inactive) | 78.2 µM (inactive) | > 100 µM (inactive) | > 100 µM (inactive) | 39.4 µM (inactive) | > 100 µM (inactive) | 19.1 µM (inactive) | 0.501 µM (active) | 50.9 µM (inactive) | > 100 µM (inactive) | 23.7 µM (inactive) | > 100 µM (inactive) | > 100 µM (inactive) | 64.1 µM (inactive) | > 100 µM (inactive) | > 100 µM (inactive) | 59.2 µM (inactive) | > 100 µM (inactive) | 33 µM (inactive) | > 100 µM (inactive) |
| Cc1ccc(/N=N\c2c(O)ccc3cc(S(=O)(=O)O)ccc23)cc1 | > 100 µM (inactive) | > 100 µM (inactive) | > 100 µM (inactive) | > 100 µM (inactive) | > 100 µM (inactive) | > 100 µM (inactive) | > 100 µM (inactive) | > 100 µM (inactive) | > 100 µM (inactive) | > 100 µM (inactive) | > 100 µM (inactive) | > 100 µM (inactive) | > 100 µM (inactive) | > 100 µM (inactive) | > 100 µM (inactive) | > 100 µM (inactive) | > 100 µM (inactive) | > 100 µM (inactive) | > 100 µM (inactive) | > 100 µM (inactive) |
